Source: patent publication US12247022B2, “Combinations for treatment of NASH/NAFLD and related diseases” (Pfizer Inc., priority 2018, dated 2025)

Assays:
Format in all cases: in vivo, rat
[1] = test system: Western diet fed Sprague Dawley rats; assay: Hepatic triglyceride (steatosis), Western diet fed rats; settings: oral, Day 28
Protocol: (§1) A randomized, vehicle-controlled, 8-parallel arm study was conducted in male Sprague-Dawley rats (Charles River (Boston, MA)) to obtain circulating and hepatic TG levels. Standard laboratory conditions were used to house 96 rats (˜200 g); they were double housed and kept under 12:12-hour reverse light-dark schedule (lights off at 8:00 AM). Rats were randomized into chow or Western diet groups and dose groups upon arrival and were given a 14-day lead-in period on either standard rat chow or Western diet prior to the start of the study. Standard Laboratory Rodent chow diet, 5053, was from LabDiet (PMI, St Louis, Missouri). Western Diet, D12079Bi, was from Research Diets (New Brunswick, New Jersey).
Starting on Day 1 of the study, rats were dosed orally (10 mL/kg) with either vehicle control (0.5% MC (wt/volume %) in dionized water), low or high doses of Compound A (1 mg/kg or 10 mg/kg QD, respectively), low or high doses of Compound D (5 mg/kg or 30 mg/kg BID respectively), or co-administration of low doses (Compound A at 1 mg/kg QD and Compound D at 5 mg/kg BID), or co-administration of high doses (Compound A at 10 mg/kg QD and Compound D at 30 mg/kg BID)
On the last day of the study (Day 28), rats were sacrificed for tissue collection after a 4 hour fast, 2 hours post-dose: two hours post-dose, blood for determining plasma analytes was collected via lateral tail vein and then the animals were sacrificed by CO2 asphyxiation. Blood was transferred to BD Microtainer tubes coated with K2EDTA (PN365974), centrifuged at 4° C. and the plasma transferred to a 96-well microtitre plate and stored at −20° C. Livers were rapidly removed, freeze-clamped in a Wollenberg clamp pre-cooled in liquid N2 individually wrapped in aluminum foil and subsequently stored at −80° C.
Tissue pulverization: Frozen livers were rapidly pulverized on an aluminum block cooled in liquid N2, ensuring the tissue remained frozen throughout the pulverization. The pulverized tissues were transferred and stored in 7 mL polypropylene conical tubes at −80° C. until analysis.
Extraction for hepatic triglyceride: Approximately 50 to 100 mg of pulverized tissue was added to a 2 mL lysing matrix D tube (MP Bio) containing 800 μL ice cold 1:1 CHCl3:MEOH. Samples were immediately extracted at 4° C. using Qiagen Tissue Lyser II (Qiagen Cat No. 85300) for 4 minutes at 30 Hz. The homogenate was then transferred to 13×100 mm glass tubes and placed on ice. The lysis tubes were then rinsed with 800 μL of 1:1 CHCl3:MeOH, vortexed for 30 seconds and added to the 13×100 mm glass tubes. While on ice, 2.4 ml of 100% CHCl3 was added to all glass vials to bring the ratio of CHCl3:MeOH to 4:2. Samples were then placed in the −20° C. freezer overnight. […]

[2] = test system: acetyl-CoA carboxylase (ACC1); assay: Hepatic lipogenic gene expression (qPCR), Western diet fed rats: ACC1; settings: Actb housekeeping gene, Day 28 liver
Protocol: as §1
(§2) Starting on Day 1 of the study, rats were dosed orally (10 mL/kg) with either vehicle control (0.5% MC (wt/volume %) in dionized water), low or high doses of Compound A (1 mg/kg or 10 mg/kg QD, respectively), low or high doses of Compound D (5 mg/kg or 30 mg/kg BID respectively), or co-administration of low doses (Compound A at 1 mg/kg QD and Compound D at 5 mg/kg BID), or co-administration of high doses (Compound A at 10 mg/kg QD and Compound D at 30 mg/kg BID) […]
(§3) Another portion of the pulverized liver was processed and analyzed for lipogenic gene expression. Rat taqman probes against ACC1, FASN, SCD1, PCSK9 and SREBP-1c were all assessed using Actb as housekeeping gene on qPCR.

[3] = test system: proprotein convertase subtilisin/kexin type 9 (PCSK9); assay: Hepatic lipogenic gene expression (qPCR), Western diet fed rats: PCSK9; settings: Actb housekeeping gene, Day 28 liver
Protocol: as §1, §2, §3

[4] = test system: sterol regulatory element-binding protein 1c (SREBP-1c); assay: Hepatic lipogenic gene expression (qPCR), Western diet fed rats: SREBP-1c; settings: Actb housekeeping gene, Day 28 liver
Protocol: as §1, §2, §3

[5] = high dose (Compound A 10 mg/kg QD; Compound D 30 mg/kg BID; or both co-administered)
[6] = low dose (Compound A 1 mg/kg QD; Compound D 5 mg/kg BID; or both co-administered)

SMILES | reduction in steatosis (hepatic triglyceride), relative to vehicle administered Western diet fed rats [1, 5] [%] | reduction in steatosis (hepatic triglyceride), relative to vehicle administered Western diet fed rats [1, 6] [%] | hepatic ACC1 gene expression relative to Western Diet fed and vehicle treated animals [2] | hepatic PCSK9 gene expression relative to Western Diet fed and vehicle treated animals [3] | hepatic SREBP1 gene expression relative to Western Diet fed and vehicle treated animals [4]
COc1cc(C(=O)N2CCC3(CC2)CC(=O)c2c(cnn2C(C)C)C3)cc(-c2ccc(C(=O)O)cc2)n1 [Compound A, 4-(4-(1-isopropyl-7-oxo-1,4,6,7-tetrahydrospiro[indazole-5,4′-piperidine]-1′-carbonyl)-6-methoxypyridin-2-yl)benzoic acid] | 53 | 36 | trended to further increase | – | –
CCOc1cccnc1Oc1cncc(-c2ncc(C(=O)N[C@H]3CCOC3)cn2)c1 [Compound D, (S)-2-(5-((3-ethoxypyridin-2-yl)oxy)pyridin-3-yl)-N-(tetrahydrofuran-3-yl)pyrimidine-5-carboxamide] | 30 | 25 | decreased expression | decreased expression | decreased expression
